Like-named read-outs stand apart in the source and are kept apart here.
What was measured:
P. falciparum Dd2 = assay: Ex vivo 72-hour SYBR Green assay, Dd2 control (Uganda); type: cell-based, Plasmodium falciparum; conditions: Ugandan ex vivo assay control; read-out: EC50 lab strain Dd2
Description: Samples were delivered to the adjacent IDRC laboratory at Tororo District Hospital or transported by car from Masafu Hospital on the day of collection for storage of blood spots on filter paper (for isolation of nucleic acids) and initiation of ex vivo culture of malaria parasites. […] Before assay, 10 mM antimalarial stock compounds were diluted as necessary in DMSO and stored at −20°C. […] Compounds were serially diluted threefold in a 96-well assay plate in complete medium to a final volume of 50 μl, in columns 1 to 10, with concentrations optimized to capture full dose-response curves. Column 11 contained compound-free controls, while column 12 contained uninfected human RBC controls. Parasite culture (150 μl) was added to columns 1 to 11 of the assay plate with a final volume of 200 μl per well, 0.2% parasitemia, and 2% hematocrit. […] Thawed plates were incubated with SYBR Green lysis buffer for 1 hour in the dark as previously reported ([62]). Fluorescence was quantified using a BMG Fluostar Optima plate reader at an excitation of 485 nm and an emission of 530 nm, and data were plotted using GraphPad Prism 7. The data were curve fit with a variable slope function to estimate IC50 values. For each isolate, a Z′ factor to assess assay quality was calculated from positive controls (eight drug-free wells) and negative controls (eight parasite-free, red cell control wells). Z′ values over 0.5 were considered good assays, but each curve was also examined by eye for suitability. Some assays with Z′ below 0.5 may be considered valid depending on factors such as the SE of the curve-fit IC50.

[1] = test system: P. falciparum NF54-HGL stage V gametocytes fed to A. stephensi mosquitoes; assay: SMFA dose response (luminescence); type: in vivo, Plasmodium falciparum
Description: Compounds were diluted in DMSO and then in culture medium (RPMI 1640 supplemented with 367 μM hypoxanthine, 25 mM Hepes, 25 mM sodium bicarbonate, and 10% human type A serum) to achieve a final DMSO concentration of 0.1%. Compounds were incubated with stage V gametocytes from the P. falciparum NF54-HGL reporter strain ([60]) for 48 hours at 37°C in Eppendorf tubes. Subsequently, parasites were pelleted by centrifugation (20 s at 20,000g) and resuspended in human type A serum containing diluted compound (final DMSO concentration of 0.1%) and human type O RBCs to achieve a hematocrit of 50%. This blood meal was then fed to 3- to 5-day-old A. stephensi mosquitoes [Sind-Kasur Nijmegen strain ([61])] for 10 min. Following feeding, unfed mosquitoes were removed, and mosquitoes were maintained at 26°C and 70 to 80% relative humidity. Eight days after feeding, oocyst intensity and prevalence were assessed by luminescence measurement of individual mosquitoes as described ([60]). All conditions were tested in duplicate, and for each replicate, a total of 24 mosquitoes were analyzed. IC50 values were estimated by fitting a four-parameter Hill model to the data using least squares to find the best fit. Controls included vehicle (0.1% DMSO) and 10 μM DHA.

SMILES	EC50 (P. falciparum Dd2)	IC50 ([1]; read-out: SMFA IC50 infection (transmission) prevalence, 48 hours incubation; oocysts 8 days after feeding)	IC50 ([1]; read-out: SMFA IC50 infection (transmission) prevalence; 48 hours incubation; oocysts 8 days after feeding)	IC50 ([1]; read-out: SMFA IC50 oocyst (transmission) intensity, 48 hours incubation; oocysts 8 days after feeding)	IC50 ([1]; read-out: SMFA IC50 oocyst (transmission) intensity; 48 hours incubation; oocysts 8 days after feeding)
CC(C)c1[nH]nc2c(=O)[nH]c(Cc3ccccc3F)nc12 [SAL-0010042]	115 nM				
CC(C)c1n[nH]c2c(=O)[nH]c(Cc3ccc(F)cc3F)nc12 [SAL-0010003]		116 nM	116 nM	67.3 nM	67 nM

— paper PMC11623267, “Inhibitors of malaria parasite cyclic nucleotide phosphodiesterases block asexual blood-stage development and mosquito transmission” (Science Advances, 2024)
